# Patent US5824320A, “Cosmetic or pharmaceutical compositions containing, as active ingredient, mangiferine or its derivatives, in pure form or in plant extracts” (Laboratories de Biologie Vegetale Yves Rocher, priority 1994, dated 1998)
# What was measured:
# [1] = Anti-free radical activity (NADH/PMS superoxide, NBT reduction); format: biochemical; settings: 1% solution in propylene glycol vs 0.1% rutin
# Description: Anti-Free Radical Activity (determined according to V. Ponti, M. U. Dianzani, K. Cheeseman and T. F. Slater, Cehm--Biol interaction, 23 (1978) 281-291).
# Superoxide anions are generated by the reaction of NADH (Nicotinamide Adenine Dinucleotide in a reduced form) with PMS (Phenazine Methosulphate). The superoxide anions reduce NBT (Nitro Blue Tetrazolium) to diformazan which is violet-blue in colour.
# The appearance of reduced NBT is monitored over time using a spectrophotometer. The results are represented in FIG. 3a.
# The anti-free radical activity of the extracts is expressed as rutin equivalent for a 50% inhibition.
# Anti-Free Radical Activity Determined in vitro (V. Ponti, M. U. Dianzani, K. Cheeseman and T. F. Slater, Chem. Biol. interaction, 23, 281-291, 1978).
# The anti-free radical activity of the extracts is expressed in rutin equivalent for a 50% inhibition.
# Solubility = format: physicochemical
# [2] = target: Clostridium histolycum collagenase (Hathewaya histolytica, UniProt Q46085); experiment: biochemical
# [3] = UV light absorption spectrum; format: physicochemical
# [4] = Photostability under continuous xenon lamp radiation (half-life time of absorption); settings: aqueous solution, compared with benzophenone 4 under the same conditions
# pancreatic elastase = pancreatic elastase (Sus scrofa, UniProt P00772); experiment: Anti-elastase activity (MeO Suc-Ala-Ala-Pro-Val-pNa substrate)
# hyaluronidase = experiment: Anti-hyaluronidase activity (N-acetylglucosamine liberated from hyaluronic acid); format: biochemical; settings: Mangifera extract 1% dry extract; heparin Sigma 10 USP/ml
# Procedure: Anti-Hyaluronidase Activity (determined according to Jose L. Reissig, Jack L. Stominger and Luis F. Leloior, 05.12.1955).
# The N-acetylglucosamine liberated after 45 minutes during the reaction of the hyaluronidase with hyaluronic acid is measured using a spectrophotometer. A process for reducing the anhydrous sugars, which in acid medium are converted to furan derivatives, is used; the said sugars react with para-dimethylaminobenzaldehyde to form a coloured complex.
# The activity is expressed in μg of N-acetylglucosamine formed per minute.
# The anti-hyaluronidase activity is expressed as a quantity of extract for obtaining 50% inhibition.
# Anti-Hyaluronidase Activity Determined in vitro (Jose L. Reissig, Jack L. Strominger and Luis F. Leloir, J. Biol.--Chem. 217, 960-966, 1953).
# The anti-hyaluronidase activity is expressed as quantity of extract for obtaining 50% inhibition. The results are plotted in Figure 5b.
# Chain of Clostridium histolycum collagenase (Q46085 41-1021 limits assumed): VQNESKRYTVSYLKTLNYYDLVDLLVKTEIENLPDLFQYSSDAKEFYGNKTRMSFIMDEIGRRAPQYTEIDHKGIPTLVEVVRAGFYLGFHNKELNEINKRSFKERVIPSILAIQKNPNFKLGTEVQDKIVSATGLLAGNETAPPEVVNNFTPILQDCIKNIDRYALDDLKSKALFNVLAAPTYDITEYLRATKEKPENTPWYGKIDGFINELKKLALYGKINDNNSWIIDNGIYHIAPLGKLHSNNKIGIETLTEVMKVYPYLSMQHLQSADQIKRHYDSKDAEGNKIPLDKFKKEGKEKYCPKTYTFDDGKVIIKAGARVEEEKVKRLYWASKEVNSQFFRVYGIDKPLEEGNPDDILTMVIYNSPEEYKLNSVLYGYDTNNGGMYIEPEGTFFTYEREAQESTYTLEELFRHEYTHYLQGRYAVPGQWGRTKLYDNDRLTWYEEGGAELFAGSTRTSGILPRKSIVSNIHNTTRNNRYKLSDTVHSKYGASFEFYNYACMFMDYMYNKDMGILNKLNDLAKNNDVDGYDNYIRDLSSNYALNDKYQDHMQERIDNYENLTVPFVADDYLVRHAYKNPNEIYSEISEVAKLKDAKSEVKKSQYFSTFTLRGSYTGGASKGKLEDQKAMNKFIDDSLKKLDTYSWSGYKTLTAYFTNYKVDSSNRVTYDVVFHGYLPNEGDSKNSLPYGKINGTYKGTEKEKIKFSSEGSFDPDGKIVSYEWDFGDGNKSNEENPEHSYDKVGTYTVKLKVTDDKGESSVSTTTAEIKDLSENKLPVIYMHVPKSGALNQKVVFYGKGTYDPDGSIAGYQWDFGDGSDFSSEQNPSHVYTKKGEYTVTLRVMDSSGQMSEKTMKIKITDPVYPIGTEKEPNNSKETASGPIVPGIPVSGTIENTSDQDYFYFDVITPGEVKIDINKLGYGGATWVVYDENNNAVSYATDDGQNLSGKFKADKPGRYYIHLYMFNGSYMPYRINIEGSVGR
# Chain of pancreatic elastase (P00772 27-266): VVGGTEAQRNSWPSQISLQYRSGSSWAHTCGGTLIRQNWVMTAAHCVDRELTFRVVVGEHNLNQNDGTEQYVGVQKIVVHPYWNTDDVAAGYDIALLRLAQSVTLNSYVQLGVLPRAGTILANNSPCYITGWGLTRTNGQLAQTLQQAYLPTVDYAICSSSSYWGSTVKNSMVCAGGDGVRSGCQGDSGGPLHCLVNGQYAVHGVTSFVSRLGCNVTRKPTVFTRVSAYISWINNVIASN
molecule,measurement,setting,value
"O=c1c2cc(O)c(O)cc2oc2cc(O)c([C@@H]3O[C@H](CO)[C@@H](O)[C@H](O)[C@H]3O)c(O)c12 [mangiferine, C-glucoside of 1,3,6,7-tetrahydroxy xanthone]",phototoxicity,Phototoxicity check,absence of phototoxicity
same,anti-free radical activity relative to rutin reference solution,[1],4 times
same,solubility in alkaline liquids,Solubility; alkaline liquids,soluble
same,solubility in cold water,Solubility; cold water,very sparingly soluble
same,IC50,[2],~118 µM
same,UV absorption maximum corresponding to the zone of UVA rays,[3]; UVA zone,around 360 nm
same,UV absorption maximum corresponding to UVB rays,[3]; UVB zone,around 320 nm
same,"photostability (resistance to irradiation, half-life time)",[4],"equally resistant to irradiation, with a very similar half-life time"
same,IC50,pancreatic elastase,~23.7 µM
heparin,half-inhibition volume IV50 (anti-hyaluronidase),hyaluronidase,380 µL
